Values joined by “and” are separate entries in the source; they are usually repeats but may differ in a detail not shown here. Identical values can stand only once.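 48-hour exposure; five concentrations; linearly interpolated endpoints. GI50 = concentration required for 50% inhibition of growth. At the TGI there is no net growth.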
Columns and labels:
Assay in all cases: NCI-60 cell line screen, 48 h
[1] = tested on: DU-145 prostate
[2] = tested on: NCI/ADR-RES ovarian
[3] = tested on: MDA-MB-231 breast
[4] = tested on: T-47D breast
[5] = tested on: PC-3 prostate
[6] = tested on: LXFL 529 NSCLC
[7] = tested on: M19-MEL melanoma
[8] = tested on: KM20L2 colon
[9] = tested on: SNB-78 CNS

SMILES | GI50 [1] | TGI [1] | GI50 [2] | TGI [2] [µM] | GI50 [3] | TGI [3] | GI50 [4] | TGI [4] | GI50 [5] | TGI [5] | TGI [6] [µM] | TGI [7] [µM] | TGI [8] [µM] | TGI [9] [µM]
CCOc1ccc(Nc2c3ccccc3nc3ccccc23)cc1 | 0.843 µM and 1.01 µM | 9.34 µM and 6.59 µM | 0.271 µM and 0.117 µM | 0.588 | 1.91 µM and 0.959 µM | 9.67 µM and 14.5 µM | 1.34 µM and 0.916 µM | 3.78 µM and 3.83 µM | 0.392 µM and 0.748 µM | 7.29 µM and 5.61 µM | – | – | – | –
C/C1=C\CC[C@@](C)(O)[C@@H]2C[C@H](CC/C(C)=C/CC1)C1(CC1)C(=O)O2 | 41.8 µM | > 100 µM | 28.3 µM | > 100 | 13.6 µM | 32.6 µM | 16.7 µM | 67.2 µM | 27.8 µM | 69.4 µM | – | – | – | –
Cc1cccc(N(CC(=O)O)S(=O)(=O)c2ccccc2)c1 | – | – | – | – | – | – | – | – | – | – | > 100 | > 100 | > 100 | –
CCOC(=O)c1c(SCCN2CCOCC2)n(-c2ccccc2)c(=S)n(-c2ccccc2)c1=O | – | – | – | – | – | > 100 µM | – | > 100 µM | – | – | – | – | – | –
O=C(NCCN1CCNCC1)c1ccc(Nc2nc3ccccc3c3occc23)cc1 | 3.44 µM | 12.5 µM | 21 µM | 46.5 | 11.8 µM | 25.8 µM | 5.71 µM | 35.4 µM | 11.1 µM | 29.8 µM | – | – | – | –
N#C/C(=C1\SC(N=Nc2ccc(Cl)cc2)C(=O)N1c1ccccc1)c1nc2ccccc2[nH]1 (stereo not given) | – | – | – | – | – | – | – | – | – | – | > 100 | 95.4 | > 100 | > 100
COc1ccc(C(=O)c2nc3ccccc3n2CC(=O)c2ccc(Cl)cc2)cc1 | 4.51 µM | > 100 µM | 1.2 µM | > 21.3 | 15.6 µM | > 100 µM | 3.65 µM | > 100 µM | 3.09 µM | > 100 µM | – | – | – | –
CCOC(=O)N1CCN(CCCCCOc2ccccc2C2CCCCC2)CC1 | 14.4 µM | 32.3 µM | 2.05 µM | 5.66 | 5.1 µM | 21.5 µM | 2.35 µM | 14.4 µM | 2.6 µM | 13 µM | – | – | – | –
CC(C)Oc1ccc(C(=O)Cn2ccnc2)cc1-n1c(CN2CCN(C(=O)COc3ccc(Cl)cc3)CC2)nc2ccccc2c1=O | 9.59 µM | > 100 µM | > 100 µM | > 100 | 4.32 µM | 19.7 µM | 14.3 µM | > 95.4 µM | 9.44 µM | 37.2 µM | – | – | – | –
COc1cc2nc(-c3ccc(C(F)(F)F)cc3)cc(OCCCN3CCCC3)c2cc1OC | 0.992 µM | > 46.6 µM | 0.47 µM | 39 | 0.532 µM | 8.23 µM | 0.478 µM | 15.9 µM | 1.14 µM | 9.79 µM | – | – | – | –
CN(C)C(=S)Nc1nnc(Nc2ccccc2)s1 | – | – | – | – | – | – | – | – | – | – | > 100 | > 100 | > 100 | > 100
N#Cc1c(-c2ccco2)cc(-c2ccccc2)[nH]c1=O | – | – | – | – | – | – | – | – | – | – | > 100 | > 100 | > 100 | > 100
Cc1ccc(NC(=O)/C(Cc2nc3ccc([N+](=O)[O-])cc3[nH]c2=O)=N\NC(=O)C[n+]2ccccc2)c(C)c1 | – | > 100 µM | – | > 100 | – | 86.4 µM | – | – | – | > 100 µM | – | – | – | –
CCN(CC)c1ccc(/C=C/C2=[N+](C)c3ccccc3C2(C)C)c(C)c1 | 0.0985 µM | 11.6 µM | 2.24 µM | 13 | 0.101 µM | 2.27 µM | < 0.0272 µM | 1.61 µM | 0.0225 µM | 1.67 µM | – | – | – | –
Cc1ccc(-n2nc(C(C)(C)C)cc2NC(=O)NCc2cc(F)ccc2Oc2ccc3c(cnn3CCO)c2)cc1 | > 10 µM and 7.2 µM | > 100 µM | > 10 µM and 7.5 µM | > 100 | 2.6 µM and 2.57 µM | > 58.9 µM | 3.79 µM and 3.76 µM | > 10 µM and 32.7 µM | > 10 µM and 5.28 µM | > 100 µM | – | – | – | –
CCn1c(-c2nonc2N)nc2ccncc21 | > 25 µM | > 25 µM | > 25 µM | > 25 | > 25 µM | > 25 µM | > 25 µM | > 25 µM | > 25 µM | > 25 µM | – | – | – | –
Cc1ccc(NC(=O)/C(Cc2cc(=O)oc3cc(O)ccc23)=N\NC(=O)C[N+](C)(C)C)cc1C | – | > 100 µM | – | > 100 | – | > 100 µM | – | > 100 µM | – | > 100 µM | – | – | – | –
O=C1c2cccc3cccc(c23)C(=O)N1O | – | > 100 µM | – | > 100 | – | > 100 µM | – | > 100 µM | – | > 100 µM | – | – | – | –
O=C(/C=C/c1cccc(O)c1)c1cccc(-n2cc(-c3ccc4ccccc4c3)[nH]c2=O)c1 | 1.75 µM | 3.65 µM | 1.55 µM | 5.83 | 1.66 µM | 4.9 µM | 1.11 µM | 3.84 µM | 1.85 µM | 7.9 µM | – | – | – | –
COC(=O)c1ccc2c(c1)C(=O)c1c-2n(CCCN=[N+]=[N-])c(=O)c2cc([N+](=O)[O-])ccc12 | 70.9 µM | > 100 µM | > 100 µM | > 100 | 58 µM | > 100 µM | > 100 µM | > 100 µM | > 100 µM | > 100 µM | – | – | – | –
Cc1cccc(C)c1N1C(=O)C(=O)C(c2nc3ccccc3s2)C(=Nc2cccc3c(=O)[nH][nH]c(=O)c23)C1=O (stereo not given) | – | – | – | – | – | – | – | – | – | – | > 100 | > 100 | > 100 | > 100
CC(C)[O-].CC(C)[O-].CN(CCN(C)Cc1cc(F)cc(F)c1[O-])Cc1cc(F)cc(F)c1[O-].[Ti+4] | 1.47 µM | 7.06 µM | 0.863 µM | 7.05 | 1.67 µM | 10.5 µM | 0.416 µM | 8.31 µM | 1.23 µM | 5.43 µM | – | – | – | –
OCc1ccc(N2CCOCC2)cc1Cl | > 100 µM | > 100 µM | > 100 µM | > 100 | > 100 µM | > 100 µM | 14.7 µM | > 84.1 µM | > 100 µM | > 100 µM | – | – | – | –
CCCCCCCCCCCCCC[n+]1cccc(C(N)=O)c1 | 3.3 µM | 11.6 µM | 25.6 µM | > 80.3 | 1.45 µM | 4.54 µM | 4.66 µM | 27.6 µM | 0.598 µM | 2.94 µM | – | – | – | –

Source: PubChem BioAssay (NCI)
